US10023570B2 (Array BioPharma, Inc., priority 2015, dated 2018)
Like-named read-outs stand apart in the source and are kept apart here.

Assays:
[1] = target: N-terminal GST tagged recombinant human RET cytoplasmic domain (aa 658-end), wild type RET kinase (Homo sapiens (Human), UniProt P07949); experiment: RET Enzyme Assay (HTRF KinEASE-TK), wild type RET; type: biochemical; settings: wild type RET, 1 mM ATP
[2] = target: Kif5b-RET fusion protein in HEK-293 cells (Homo sapiens, UniProt P07949); experiment: cell-based
[3] = target: human KDR protein in HEK-293 cells (Homo sapiens (Human), UniProt P35968); experiment: KDR Cell Assay (phospho-KDR in HEK-293 cells expressing inducible KDR); type: cell-based; settings: pKDR Cell HEK 10% FBS IC50, HEK-293 cells expressing inducible KDR, VEGF stimulated
Method in brief: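 HEK-293 cells with inducible human KDR were treated with compound for 1 h in DMEM (0.25% DMSO final), then lysed. Phospho-KDR was quantified by Meso Scale immunoassay, expressed as percent of control, and IC50 taken where a 4-parameter logistic fit crossed 50 POC.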

[4] = HEK-293 cells expressing Kif5b-RET, phospho-RET(Tyr1062), read-out: KIF5B-RET pTYR1062 Cell IC50

Chain of N-terminal GST tagged recombinant human RET cytoplasmic domain (aa 658-end), wild type RET kinase (P07949 658-1114): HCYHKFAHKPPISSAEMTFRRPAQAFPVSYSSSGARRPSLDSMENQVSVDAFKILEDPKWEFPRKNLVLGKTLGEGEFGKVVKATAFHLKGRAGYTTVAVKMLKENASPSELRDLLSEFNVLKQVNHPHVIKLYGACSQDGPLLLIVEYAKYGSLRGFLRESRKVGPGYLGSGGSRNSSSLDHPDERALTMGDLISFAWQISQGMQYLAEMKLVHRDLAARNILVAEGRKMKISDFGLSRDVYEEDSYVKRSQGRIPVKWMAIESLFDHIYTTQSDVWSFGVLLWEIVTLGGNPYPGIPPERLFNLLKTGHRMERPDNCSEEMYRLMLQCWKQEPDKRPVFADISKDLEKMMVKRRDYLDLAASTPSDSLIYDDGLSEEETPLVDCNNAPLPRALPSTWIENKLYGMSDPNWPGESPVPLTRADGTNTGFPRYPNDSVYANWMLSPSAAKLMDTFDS
Chain of human KDR protein in HEK-293 cells (P35968 20-1356): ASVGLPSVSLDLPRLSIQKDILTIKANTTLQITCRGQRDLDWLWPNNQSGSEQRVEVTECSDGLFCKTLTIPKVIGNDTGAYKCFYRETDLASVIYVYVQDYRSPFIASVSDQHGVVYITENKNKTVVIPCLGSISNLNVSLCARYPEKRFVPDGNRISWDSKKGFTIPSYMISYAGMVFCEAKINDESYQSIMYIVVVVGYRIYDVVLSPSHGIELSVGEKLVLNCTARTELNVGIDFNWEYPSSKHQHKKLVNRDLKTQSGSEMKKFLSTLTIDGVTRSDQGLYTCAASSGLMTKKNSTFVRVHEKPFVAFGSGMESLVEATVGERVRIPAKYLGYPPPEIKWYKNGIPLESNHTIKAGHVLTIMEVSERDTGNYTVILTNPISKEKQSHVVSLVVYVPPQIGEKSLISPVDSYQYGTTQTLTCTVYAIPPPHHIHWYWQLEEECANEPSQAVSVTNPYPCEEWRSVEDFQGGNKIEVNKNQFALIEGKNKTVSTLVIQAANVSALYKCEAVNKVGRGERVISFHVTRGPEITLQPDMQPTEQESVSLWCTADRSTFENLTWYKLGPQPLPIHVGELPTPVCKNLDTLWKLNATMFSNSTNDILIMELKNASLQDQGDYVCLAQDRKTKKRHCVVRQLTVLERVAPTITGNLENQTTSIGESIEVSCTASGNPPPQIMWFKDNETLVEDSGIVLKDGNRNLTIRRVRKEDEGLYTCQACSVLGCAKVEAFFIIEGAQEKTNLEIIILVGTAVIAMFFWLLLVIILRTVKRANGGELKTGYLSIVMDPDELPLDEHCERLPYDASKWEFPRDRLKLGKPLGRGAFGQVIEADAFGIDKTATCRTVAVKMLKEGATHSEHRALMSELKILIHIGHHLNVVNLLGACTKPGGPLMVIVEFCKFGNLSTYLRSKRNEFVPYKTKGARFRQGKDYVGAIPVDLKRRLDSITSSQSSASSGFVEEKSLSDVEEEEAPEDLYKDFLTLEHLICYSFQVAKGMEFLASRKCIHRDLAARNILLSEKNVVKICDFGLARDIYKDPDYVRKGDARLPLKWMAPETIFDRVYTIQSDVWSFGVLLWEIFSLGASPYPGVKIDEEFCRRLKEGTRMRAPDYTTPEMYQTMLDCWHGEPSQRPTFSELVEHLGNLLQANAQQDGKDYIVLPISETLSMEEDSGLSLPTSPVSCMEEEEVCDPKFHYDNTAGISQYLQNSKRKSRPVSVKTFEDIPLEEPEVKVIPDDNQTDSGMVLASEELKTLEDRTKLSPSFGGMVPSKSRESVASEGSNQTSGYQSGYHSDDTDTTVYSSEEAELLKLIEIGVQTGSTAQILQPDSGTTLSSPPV
Chain of Kif5b-RET fusion protein in HEK-293 cells (P07949 29-1114 limits assumed): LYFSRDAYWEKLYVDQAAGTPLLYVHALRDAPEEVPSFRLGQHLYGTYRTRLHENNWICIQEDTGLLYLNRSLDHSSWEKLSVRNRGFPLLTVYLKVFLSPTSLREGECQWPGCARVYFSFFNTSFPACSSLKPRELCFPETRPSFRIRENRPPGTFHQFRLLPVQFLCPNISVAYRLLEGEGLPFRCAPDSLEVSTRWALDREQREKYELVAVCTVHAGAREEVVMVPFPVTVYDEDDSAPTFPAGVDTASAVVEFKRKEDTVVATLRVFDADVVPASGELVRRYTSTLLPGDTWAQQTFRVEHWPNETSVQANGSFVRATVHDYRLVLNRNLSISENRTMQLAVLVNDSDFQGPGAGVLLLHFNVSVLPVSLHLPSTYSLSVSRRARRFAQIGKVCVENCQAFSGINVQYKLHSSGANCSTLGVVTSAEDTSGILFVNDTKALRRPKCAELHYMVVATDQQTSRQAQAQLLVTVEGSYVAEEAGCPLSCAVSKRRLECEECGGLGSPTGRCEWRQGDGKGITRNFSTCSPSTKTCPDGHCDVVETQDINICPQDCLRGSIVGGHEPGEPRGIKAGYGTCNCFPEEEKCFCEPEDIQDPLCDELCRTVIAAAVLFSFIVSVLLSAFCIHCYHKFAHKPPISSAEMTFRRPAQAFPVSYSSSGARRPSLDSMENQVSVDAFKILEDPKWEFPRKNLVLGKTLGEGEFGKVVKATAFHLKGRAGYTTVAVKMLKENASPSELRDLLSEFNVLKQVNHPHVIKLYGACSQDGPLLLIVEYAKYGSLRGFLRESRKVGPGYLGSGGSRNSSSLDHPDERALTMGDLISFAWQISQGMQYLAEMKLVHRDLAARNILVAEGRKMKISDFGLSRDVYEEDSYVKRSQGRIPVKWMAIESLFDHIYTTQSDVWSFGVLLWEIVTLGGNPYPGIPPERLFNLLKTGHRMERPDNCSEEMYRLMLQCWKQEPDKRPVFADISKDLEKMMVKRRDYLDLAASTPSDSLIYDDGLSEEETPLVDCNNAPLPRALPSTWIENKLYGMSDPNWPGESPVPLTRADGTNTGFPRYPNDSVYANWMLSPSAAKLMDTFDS

Structure (SMILES)	IC50 [1]	IC50 [2, 4]	IC50 ([3]; 10% FBS)	IC50 ([2]; HEK-293 cells expressing Kif5b-RET, read-out: KIF5B-RET pTYR1062 Cell IC50)	IC50 [3]	IC50 [2]
Cn1cc(-c2cc(-c3ccc(N4CCC(C)(NC(=O)OC(C)(C)C)CC4)nc3)c3c(C#N)cnn3c2)cn1 [Example 201, tert-butyl (1-(5-(3-cyano-6-(1-methyl-1H-pyrazol-4-yl)pyrazolo[1,5-a]pyridin-4-yl)pyridin-2-yl)-4-methylpiperidin-4-yl)carbamate]	0.0107 µM	0.0071 µM	1.15 µM			
COC1CCN(c2ccc(-c3cc(-c4cnn(C)c4)cn4ncc(C#N)c34)cn2)CC1 [Example 198, 4-(6-(4-methoxypiperidin-1-yl)pyridin-3-yl)-6-(1-methyl-1H-pyrazol-4-yl)pyrazolo[1,5-a]pyridine-3-carbonitrile]	0.0143 µM	0.0253 µM	0.659 µM			
CC(C)C(=O)N1CCN(c2ccc(-c3cc(-c4cnn(C)c4)cn4ncc(C#N)c34)cn2)CC1 [Example 66, 4-(6-(4-isobutyrylpiperazin-1-yl)pyridin-3-yl)-6-(1-methyl-1H-pyrazol-4-yl)pyrazolo[1,5-a]pyridine-3-carbonitrile]	0.0141 µM	0.0254 µM	0.911 µM			
COCCN(CCOC)C(=O)N1CCN(c2ccc(-c3cc(-c4cnn(C)c4)cn4ncc(C#N)c34)cn2)CC1 [Example 385, 4-(5-(3-cyano-6-(1-methyl-1H-pyrazol-4-yl)pyrazolo[1,5-a]pyridin-4-yl)pyridine-2-yl)-N,N-bis(2-methoxyethyl)piperazine-1-carboxamide]	0.0271 µM			0.0473 µM	1.97 µM	
CC(C)CN(C)C(=O)C1CCN(c2ccc(-c3cc(-c4cnn(C)c4)cn4ncc(C#N)c34)cn2)CC1 [Example 244, 1-(5-(3-cyano-6-(1-methyl-1H-pyrazol-4-yl)pyrazolo[1,5-a]pyridin-4-yl)pyridin-2-yl)-N-isobutyl-N-methylpiperidine-4-carboxamide]	0.0209 µM	0.0692 µM	0.66 µM			
CC(C)NC(=O)N1CCN(c2ccc(-c3cc(-c4cnn(C)c4)cn4ncc(C#N)c34)cn2)CC1 [Example 126, 4-(5-(3-cyano-6-(1-methyl-1H-pyrazol-4-yl)pyrazolo[1,5-a]pyridin-4-yl)pyridin-2-yl)-N-isopropylpiperazine-1-carboxamide]	0.0117 µM	0.0108 µM	0.347 µM			
Cn1cc(-c2cc(-c3ccc(N4CCC(NC(=O)OC(C)(C)C)CC4)nc3)c3c(C#N)cnn3c2)cn1 [Example 176, tert-butyl (1-(5-(3-cyano-6-(1-methyl-1H-pyrazol-4-yl)pyrazolo[1,5-a]pyridin-4-yl)pyridin-2-yl)piperidin-4-yl)carbamate]	0.0076 µM	0.0153 µM	0.928 µM			
Cc1nn(C(C)C)cc1-c1cc(-c2ccc(N3CCN(Cc4ccccc4)CC3)nc2)c2c(C#N)cnn2c1 [Example 614, 4-(6-(4-benzylpiperazin-1-yl)pyridin-3-yl)-6-(1-isopropyl-3-methyl-1H-pyrazol-4-yl)pyrazolo[1,5-a]pyridine-3-carbonitrile]	0.0222 µM				2.3 µM	0.017 µM
CCN(C)C(=O)N1CCN(c2ccc(-c3cc(-c4cnn(C)c4)cn4ncc(C#N)c34)cn2)CC1 [Example 136, 4-(5-(3-cyano-6-(1-methyl-1H-pyrazol-4-yl)pyrazolo[1,5-a]pyridin-4-yl)pyridin-2-yl)-N-ethyl-N-methylpiperazine-1-carboxamide]	0.0091 µM	0.0119 µM	1.58 µM			
